This is an account of results in PMC3249654 (The Open Virology Journal, 2011).

The IC50 is the concentration that gives 50% inhibition.

The structures appear in SMILES notation. Several values for one entry are separate records, joined by “and”; a condition that tells them apart may be missing. Identical values can stand only once.

For assay [1], the system named is influenza A(H1N1) viruses. Conditions: cited from earlier work.
The test system of assay [2] is NA enzyme activity of influenza A(H1N1) viruses. Type of assay: biochemical, influenza A(H1N1) virus. Conditions: read-out: IC50-values of outliers with reduced zanamivir susceptibility.

On to `CCOC(=O)C1=C[C@@H](OC(CC)CC)[C@H](NC(C)=O)[C@@H](N)C1` [oseltamivir], for which, in assay [1], the “average prevalence of ORV in Europe” value was 20.1%.

As for `CC(=O)N[C@H]1[C@H]([C@H](O)[C@H](O)CO)OC(C(=O)O)=C[C@@H]1N=C(N)N` [zanamivir], in assay [2], the concentration for half-maximal inhibition (IC50) was 3.1 nM and 3.4 nM and 5.3 nM.
